Measurements taken from patent publication US8618169B2, “Derivatives of N-phenylanthranilic acid and 2-benzimidazolone as potassium channel and/or neuron activity modulators” (Ramot at Tel-Aviv University Ltd., priority 2002, dated 2013).

How the values were obtained:
KCNQ2/Q3 = KCNQ2/Q3 (Homo sapiens, UniProt O43525+O43526); experiment: Opener potency on KCNQ2/Q3 by leftward shift of half-activation potential (ΔV50) versus concentration, Hill fit; format: cell-based; set-up: expressed in transfected cells; conditions: compound alone
small DRG neurons = experiment: Spiking activity of DRG neurons, current-clamp; format: cell-based, mouse
Description: Dorsal root ganglion (DRG) neurons were dissected from 2-4 days-old ICR mice that were decapitated. DRGs were placed in Hank's balanced saline solution (HBSS) and were prepared by enzymatic dissociation. Briefly, cells were incubated for 30 minutes in 5 mg/ml dispase (Sigma), 2 mg/ml collagenase type 1A (Sigma) and 0.1 mg/ml DNase (Invitrogen/Gibco) in calcium and magnesium-free HBSS, and the ganglia were thereafter mechanically triturated with a firepolished glass Pasteur pipette. The ganglia were then centrifuged for 5 minutes at 80×g and resuspended in DMEM supplemented with 2 mM L-glutamine, 16.5 mM NaCO3, 6 g/l glucose, 5 ml penicillin/streptomycin and 10% fetal calf serum. For electrophysiological recording, dissociated neurons were plated on 13 mm glass coverslips previously coated with poly-D-lysine (1 mg/ml) and laminin (10 μg/ml) and were used after 2-6 days in culture.
For current measurements in CHO cells, recordings were performed 40 hours following transfection, using the whole-cell configuration of the patch-clamp technique [Hamill et al., Nature 294: 462-464 (1981)]. Signals were amplified using an Axopatch 200B patch-clamp amplifier (Axon Instruments, Foster City, Calif., USA), sampled at 2 kHz and filtered at 800 Hz via a 4-pole Bessel low pass filter. Data were acquired using pClamp 8.1 software (Axon Instruments, Foster City, Calif., USA) and an Elonex Pentium III computer in conjunction with a DigiData 1322A interface (Axon Instruments, Foster City, Calif., USA). The patch pipettes were pulled from borosilicate glass (Warner Instrument. Corp., Hamden, Conn., USA) with a resistance of 2-5 MΩ and were filled with (in mM): 130 KCl, 1 MgCl2, 5 K2ATP, 5 EGTA, 10 HEPES, adjusted with KOH at pH 7.4 (290 mOsm). The external solution contained (in [mM]): 140 NaCl, 4 KCl, 1.8 CaCl2, 1.2 MgCl2, 11 glucose, 5.5 HEPES, adjusted with NaOH at pH 7.4 (310 mOsm). Series resistances (3-13 MΩ) were compensated (75-90%) and periodically monitored. […]

COX (Cyclooxygenase) = experiment: COX activity assay in C-26 cells (PGE2 radioimmunoassay); format: cell-based
Description: C-26 cells were plated on 24-well plates using RPMI medium. Different concentrations of the tested compound were added thereto and the cells were incubated for 30 minutes at 37° C. 30 μM exogenic arachidonic acid was then added and incubation was continued for 20 minutes (37° C.), so as to allow the cells to synthesize PGE2. Indomethacin was added thereafter (10 μM), to stop and completely block the activity. Then, the upper solution was removed into clean 24-wells. To the remained cells 100 μl NaOH (1M) were added to induce cytolysis, and the cells were left for later protein measurement. The solution removed to the new 24-well was used for a radioimmunoassay. The COX activity was estimated by calculating the ng PGE2/mg protein parameter.

[1] = system: hippocampal pyramidal neurons; experiment: Spontaneous EPSCs of hippocampal pyramidal neuron cultures, voltage-clamp; format: cell-based
Description: To further determine the synaptic site of M-channel activation by Compound 6, its effects on spontaneous excitatory postsynaptic currents (EPSCs) that could be recorded from dense networks of hippocampal pyramidal neuron cultures was tested.
In FIGS. 30B and 30C, burst activity before (control), in the presence (Compound 6) and after (Wash) application of 5 μM (FIG. 30B) and 10 μM (FIG. 30C) Compound 6, as recorded at the voltage clamp mode is shown. In FIG. 30D, burst activity before (control) and in the presence of 25 μM Linopirdine is shown. In FIG. 30E, the normalized number of bursts appeared in 180 seconds time period for 5 μM (left panel), 10 μM (mid panel) of Compound 6 and 25 μM linopirdine (right panel) are shown. The holding potential was −70 mV. n=5-6.
Thus, using the voltage-clamp configuration of the patch-clamp technique, spontaneous EPSCs were isolated at −70 mV (holding potential) in the presence of 10 μM bicuculline and 10 μM picrotoxin to block GABAA receptor-mediated inhibitory postsynaptic currents. As is shown in FIG. 30A, under control conditions, the frequency of EPSCs is variable depending of the density of the hippocampal culture, ranging from 0.4 Hz to 2 Hz. […] However, the majority of the EPSCs measured at −70 mV under the experimental recording conditions are mediated by AMPA receptors as most of the currents are blocked by 10 μM NBQX, leaving only a small fraction EPSC sensitive to the NMDA receptor blocker DL-AP5 (FIG. 30A).

## Cc1ccc(Cl)c(Nc2ccccc2C(=O)O)c1Cl [Compound 1, Meclofenamic acid]
KCNQ2/Q3; Hill fit
  Hill coefficient ηH: 2.1±0.5
KCNQ2/Q3; Hill fit, read-out: EC50 of leftward shift of the half-activation potential (ΔV50)
  EC50: 25.7 ± 1.1 µM
KCNQ2/Q3
  maximal left-shift of the half-activation potential (ΔV50): −20±3 mV

## O=C(Cc1ccccc1Nc1c(Cl)cccc1Cl)NCCOCCO [Compound 6]
Small DRG neurons; 15 μM, 75 pA, 400 ms
  effect on trains of evoked spikes: potently and reversibly blocked
Small DRG neurons; 300 pA, 1 ms pulse
  effect on solitary evoked spike: reversibly prevent the generation of the single action potential
COX (Cyclooxygenase)
  COX inhibition activity (in words): do not exhibit COX inhibition activity
COX (Cyclooxygenase); C-26 cells
  IC50: > 30 µM
COX (Cyclooxygenase); concentration of up to 10 μM
  effect on COX activity: did not block
[1]; 5 μM, −70 mV holding potential
  frequency of spontaneous EPSCs: up to 49±5 % of control
[1]; ≧10 μM
  occurrence of spontaneous EPSCs: totally suppresses
